This assay relates to microsomal-cytosol fraction. As to the kind of experiment: % inhibition of C14-acetate incorporation into lipid fractions (fatty acid and cholesterol biosynthesis) in rat liver microsomal-cytosol fraction. In kind it is biochemical, Male Charles River rats. Conditions: 0.001 M; 37° C., 90 minutes. As for the experimental part: The instant compounds are useful as pharmacological agents as evidenced by their ability to reduce serum triglyceride and cholesterol levels as determined in the following assay:
Male Charles River rats (160-200 g.), having had free access to food and water, are administered a standard diet containing 2% DEAE - cellulose (Reeve Angel anion exchange resin) for 5 days. The rats then are sacrificed and their livers removed immediately. The livers are homogenized in a medium consisting of 0.1 M potassium phosphate, pH 7.4, 0.004 m MgCl2 and 0.03 M nicotinamide, and the microsomalcytosol fraction obtained by centrifugation. 2.0 Ml. of the microsomal-cytosol fraction is incubated, at 37° C. for 90 minutes for fatty acid measurements and for measurement of cholosterol biosynthesis, in a standard assay mixture containing 10 micromoles of sodium acetate containing 0.1 microcuries of 2-C^14 -acetate, 2 micromoles nicotinamide adenine dinucleotide, 2 micromoles nicotinamide adenine dinucleotide phosphate, and 20 micromoles glucose-6-phosphate, and test compound, initially at 0.001 M, is added. All assays are run in duplicate with the assay to which no test compound is added serving as control. Heat inactivated homogenate serves as blank for both control and test systems.
Reaction rate is determined per unit of time by the amount of C^14 label incorporated into the lipid fraction from the radioactive acetate. Results are reported as % inhibition (i.e. (Difference in Reaction Rate between Control and Test Compound/Reaction Rate for Control) × 100).
Typical results are shown below in Table I for the product of Example 2, referred to as Compound I. Also represented are the results for Atromid S® , a brand of clofibrate, marketed as a hypocholesterolemic agent.
(Liver microsomes are a subcellular fraction often used to study metabolism.)

Regarding `CCOC(=O)C(C)(C)Oc1ccc(Cl)cc1` [Atromid-S, clofibrate], the “% Inhibition, Fatty Acid Fraction” value came to 24%; the “% Inhibition, Fraction (first column, qualifier not given)” value is recorded as 28%; the “% Inhibition, Non-Lipid Fraction” value worked out at 42%.

Source of the values: patent US4053481A, “2-Aryl-3,4-diphenylisoxazolin-5-ones” (G. D. Searle & Co., priority 1976, dated 1977).
